Data on 23 compounds can be found in patent publication US20220411381A1, “PYRIMIDINEDIONE DERIVATIVES” (Bayer Aktiengesellschaft, priority 2019, published 2022).

Assay [1] addresses T1, recombinant human BCAT1 enzyme (Homo sapiens, UniProt P54687).
T1 construct: purchased ATGen (South Korea) ATGP1479
T1 sequence (P54687 1-386): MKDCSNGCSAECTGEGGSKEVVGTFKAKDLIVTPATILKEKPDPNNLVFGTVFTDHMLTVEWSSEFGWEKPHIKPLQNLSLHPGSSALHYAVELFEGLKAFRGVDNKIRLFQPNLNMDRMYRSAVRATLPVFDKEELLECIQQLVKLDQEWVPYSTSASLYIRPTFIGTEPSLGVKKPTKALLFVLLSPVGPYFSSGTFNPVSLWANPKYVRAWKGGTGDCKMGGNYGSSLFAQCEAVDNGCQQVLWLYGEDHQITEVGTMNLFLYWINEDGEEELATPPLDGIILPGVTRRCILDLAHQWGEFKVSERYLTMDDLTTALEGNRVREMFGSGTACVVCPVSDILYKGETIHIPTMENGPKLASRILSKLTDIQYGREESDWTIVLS
In words: In vitro assay 1a: BCAT1 biochemical assay (coupled LeuDH/NADH fluorescence readout). The following applies: read-out: BCAT1 IC50. As for the experimental part: (§1) In Vitro Assay 1a and 1b: BCAT1 and BCAT2 Biochemical Assay
(§2) BOAT (Branched chain amino acid transferase) catalyzes transamination of the branched chain amino acid leucine to α-ketoisocaproate (KIC). The BOAT enzymatic reaction was measured in a coupled readout with leucine dehydrogenase (LeuDH) which catalyzes the Nicotinamide adenine dinucleotide (NADH) dependent reduction of KIC to leucine. NADH consumption is measured by fluorescent readout.
(§3) The biochemical reactions were performed at 32° C. in 384-well plates using a reaction volume of 51 μl and the following assay buffer conditions: 50 mM HEPES (2-[4-(2-hydroxyethyl)piperazin-1-yl]ethanesulfonic acid) pH 8.0, 50 mM aqueous solution of ammonium sulfate, 1 mM ethylenediaminetetraacetic acid, 2 mM dithiothreitol, 0.01% bovine serum albumine, 0.005% Brij 35 detergent, 0.5 μM PLP (pyridoxalphosphate), 10 μM NADH, and 50 μM α-ketoglutarate), and 100 μM leucine. […] Test compounds were used in a concentration range between 0.005 and 30 μM. The final DMSO concentration was 2%.
(§4) The reaction was initiated by addition of substrates (Leucine, α-KG, NADH).

Assay [2] has as its target T2, recombinant human BCAT2 enzyme (Homo sapiens, UniProt O15382).
T2 construct: purchased ATGen (South Korea) ATGP1523
T2 sequence (O15382 28-392): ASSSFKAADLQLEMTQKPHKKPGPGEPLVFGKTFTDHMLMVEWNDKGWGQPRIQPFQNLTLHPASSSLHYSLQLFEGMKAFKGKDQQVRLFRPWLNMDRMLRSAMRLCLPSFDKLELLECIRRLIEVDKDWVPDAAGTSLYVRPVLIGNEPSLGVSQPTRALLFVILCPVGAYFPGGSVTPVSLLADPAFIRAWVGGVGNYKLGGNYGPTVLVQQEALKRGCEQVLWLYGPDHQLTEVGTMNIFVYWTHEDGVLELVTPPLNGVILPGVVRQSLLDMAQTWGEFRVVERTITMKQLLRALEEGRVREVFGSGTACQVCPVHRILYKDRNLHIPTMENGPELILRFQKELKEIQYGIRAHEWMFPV
In words: In vitro assay 1b: BCAT2 biochemical assay (coupled LeuDH/NADH fluorescence readout). Also: recombinant human BCAT2 0.75 nM. The note with it: recombinant human BCAT2 […], 32° C., 100 μM leucine, 50 μM α-ketoglutarate, NADH fluorescence over 90 min; read-out: BCAT2 IC50. Here is the method: as §1, §2, §3, §4

[3] abbreviates: recombinant human BCAT1 […], 32° C., 100 μM leucine, 50 μM α-ketoglutarate, NADH fluorescence over 90 min.

Like-named read-outs stand apart in the source and are kept apart here.

In the case of `N#Cc1cc(F)c(-n2c(=O)cc(C(F)(F)F)[nH]c2=O)cc1Oc1c(N)cccc1F` [Example 64, 2-(2-Amino-6-fluorophenoxy)-4-[2,6-dioxo-4-(trifluoromethyl)-3,6-dihydropyrimidin-1(2H)-yl]-5-fluorobenzonitrile], the results for the 50% inhibitory concentration (IC50) in assay [1] (setting [3]) and in assay [2] were 297 nM and 2600 nM, respectively.
On to `Cc1cc(Cl)cc(C)c1Oc1cc(-n2c(=O)cc(C(F)(F)F)[nH]c2=O)c(F)cc1C#N` [Example 61, 2-(4-Chloro-2,6-dimethylphenoxy)-4-[2,6-dioxo-4-(trifluoromethyl)-3,6-dihydropyrimidin-1(2H)-yl]-5-fluorobenzonitrile], for which the IC50 (commonly the midpoint of a concentration-inhibition curve) in assay [1] (setting [3]) worked out at 2500 nM.
Still for that read-out and setting: the figure for `Cc1cc(C)c(Oc2cc(-n3c(=O)cc(C(F)(F)F)[nH]c3=O)c(F)cc2C#N)c(C)c1` [Example 62, 4-[2,6-Dioxo-4-(trifluoromethyl)-3,6-dihydropyrimidin-1 (2H)-yl]-5-fluoro-2-(2,4,6-trimethylphenoxy)benzonitrile] is 2500 nM.
Consider `Cc1ccccc1Oc1cc(-n2c(=O)cc(S(C)(=O)=O)[nH]c2=O)c(F)cc1C#N` [Example 75, 5-Fluoro-4-[4-(methanesulfonyl)-2,6-dioxo-3,6-dihydropyrimidin-1(2H)-yl]-2-(2-methylphenoxy)benzonitrile], for which the IC50 in assay [1] (setting [3]) came to 2700 nM; in assay [2], 16000 nM.
For the compound `Cc1ccccc1Oc1cc(-n2c(=O)cc(C(F)(F)F)[nH]c2=O)c(O)cc1C#N` (racemic) [Example 54, 4-[2,6-Dioxo-4-(trifluoromethyl)-3,6-dihydropyrimidin-1(2H)-yl]-5-hydroxy-2-(2-methylphenoxy)benzonitrile (rac)], the IC50 was determined as 1800 nM in assay [1] (setting [3]) and 15500 nM in assay [2].
As for “4-[4-(Methanesulfonyl)-2,6-dioxo-3,6-dihydropyrimidin-1(2H)-yl]-5-methoxy-2-(2-methylphenoxy)benzonitrile (atrop 2) [Example 81]”, the IC50 in assay [1] came out at 2500 nM.
Take `Cc1ccc(Oc2cc(-n3c(=O)cc(C(F)(F)F)[nH]c3=O)c(F)cc2C#N)c(C)c1` [Example 66, 2-(2,4-Dimethylphenoxy)-4-[2,6-dioxo-4-(trifluoromethyl)-3,6-dihydropyrimidin-1(2H)-yl]-5-fluorobenzonitrile]: the half-maximal inhibitory concentration (IC50) in assay [1] (setting [3]) came to 6700 nM; in assay [2], 49000 nM.
Consider `COc1cc(C#N)c(Oc2ccccc2C)cc1-n1c(=O)cc(S(C)(=O)=O)[nH]c1=O` (single isomer, unassigned) [Example 80, 4-[4-(Methanesulfonyl)-2,6-dioxo-3,6-dihydropyrimidin-1(2H)-yl]-5-methoxy-2-(2-methylphenoxy)benzonitrile (atrop 1)], for which the IC50 in assay [1] (setting [3]) came out at 300 nM; in assay [2], 2500 nM.
The corresponding values for `Cc1ccccc1Oc1cc(-n2c(=O)cc(C(F)(F)Cl)[nH]c2=O)c(Cl)cc1C#N` (racemic) [Example 26, 5-Chloro-4-{4-[chloro(difluoro)methyl]-2,6-dioxo-3,6-dihydropyrimidin-1(2H)-yl}-2-(2-methylphenoxy)benzonitrile (rac)] are 270 nM and 2170 nM.
The corresponding values for `Cc1cccc(C)c1Oc1cc(-n2c(=O)cc(C(F)(F)c3ccccc3)[nH]c2=O)c(F)cc1C#N` [Example 57, 4-{4-[Difluoro(phenyl)methyl]-2,6-dioxo-3,6-dihydropyrimidin-1(2H)-yl}-2-(2,6-dimethylphenoxy)-5-fluorobenzonitrile] are 1500 nM and 5000 nM.
Take `COc1cc(C#N)c(Oc2ccccc2C)cc1-n1c(=O)cc(C(F)(F)C(F)(F)F)[nH]c1=O` (racemic) [Example 51, 4-[2,6-Dioxo-4-(pentafluoroethyl)-3,6-dihydropyrimidin-1(2H)-yl]-5-methoxy-2-(2-methylphenoxy)benzonitrile (rac)]: in assay [2], the 50% inhibitory concentration (IC50) turned out to be 4330 nM.
As for `Cc1ccccc1Oc1cc(-n2c(=O)cc(C(F)(F)F)[nH]c2=O)c(Cl)cc1C#N` (single isomer, unassigned) [Example 13, 5-Chloro-4-[2,6-dioxo-4-(trifluoromethyl)-3,6-dihydropyrimidin-1(2H)-yl]-2-(2-methylphenoxy)benzonitrile (atrop 2)], in assay [2], the IC50 was determined as 2000 nM.
Still for that read-out and setting: the figure for `Cc1ccccc1Oc1cc(-n2c(=O)cc(C(F)(F)F)[nH]c2=O)c(Cl)cc1C#N` (racemic) [Example 11, 5-Chloro-4-[2,6-dioxo-4-(trifluoromethyl)-3,6-dihydropyrimidin-1(2H)-yl]-2-(2-methylphenoxy)benzonitrile (rac)] is 2000 nM.
On to `COc1cc(C#N)c(Oc2ccccc2C)cc1-n1c(=O)cc(-c2ccccc2)[nH]c1=O` (single isomer, unassigned) [Example 43, 4-(2,6-Dioxo-4-phenyl-3,6-dihydropyrimidin-1(2H)-yl)-5-methoxy-2-(2-methylphenoxy)benzonitrile (atrop 1)], for which the IC50 in assay [1] (setting [3]) stood at 5500 nM.
Take `COc1cc(C#N)c(Oc2ccccc2C)cc1-n1c(=O)cc(C(F)(F)c2ccccc2)[nH]c1=O` (racemic) [Example 24, 4-{4-[Difluoro(phenyl)methyl]-2,6-dioxo-3,6-dihydropyrimidin-1(2H)-yl}-5-methoxy-2-(2-methylphenoxy)benzonitrile (rac)]: the IC50 in assay [1] (setting [3]) was 145 nM; in assay [2], 600 nM.
Turning to `Cc1ccc(C)c(Oc2cc(-n3c(=O)cc(C(F)(F)F)[nH]c3=O)c(F)cc2C#N)c1C` [Example 60, 4-[2,6-Dioxo-4-(trifluoromethyl)-3,6-dihydropyrimidin-1(2H)-yl]-5-fluoro-2-(2,3,6-trimethylphenoxy)benzonitrile], the IC50 in assay [1] (setting [3]) was 7500 nM.
As for `COc1cc(C#N)c(Oc2ccccc2C)cc1-n1c(=O)cc(C(F)(F)Cl)[nH]c1=O` (racemic) [Example 25, 4-{4-[Chloro(difluoro)methyl]-2,6-dioxo-3,6-dihydropyrimidin-1(2H)-yl}-5-methoxy-2-(2-methylphenoxy)benzonitrile (rac)], the IC50 was found to be 200 nM in assay [1] (setting [3]) and 1300 nM in assay [2].
The corresponding values for `COc1cc(C#N)c(Oc2ccccc2C)cc1-n1c(=O)cc(Br)[nH]c1=O` (single isomer, unassigned) [Example 21, 4-[4-Bromo-2,6-dioxo-3,6-dihydropyrimidin-1(2H)-yl]-5-methoxy-2-(2-methylphenoxy)benzonitrile (atrop 2)] are 145 nM and 3000 nM.
For `CC(=O)c1cc(C)cc(C)c1Oc1cc(-n2c(=O)cc(C(F)(F)F)[nH]c2=O)c(F)cc1C#N` [Example 58, 2-(2-Acetyl-4,6-dimethylphenoxy)-4-[2,6-dioxo-4-(trifluoromethyl)-3,6-dihydropyrimidin-1(2H)-yl]-5-fluorobenzonitrile], in assay [1] (setting [3]), the IC50 stood at 1800 nM.
For the compound `Cc1ccccc1Oc1cc(-n2c(=O)cc(C(F)(F)c3ccccc3)[nH]c2=O)c(Cl)cc1C#N` (racemic) [Example 53, 5-Chloro-4-{4-[difluoro(phenyl)methyl]-2,6-dioxo-3,6-dihydropyrimidin-1(2H)-yl}-2-(2-methylphenoxy)benzonitrile (rac)], the results for the IC50 in assay [1] (setting [3]) and in assay [2] were 750 nM and 1600 nM, respectively.
On to `COc1cc(C#N)c(Oc2ccccc2Cl)cc1-n1c(=O)cc(C(F)(F)F)[nH]c1=O` (single isomer, unassigned) [Example 17, 2-(2-Chlorophenoxy)-4-[2,6-dioxo-4-(trifluoromethyl)-3,6-dihydropyrimidin-1(2H)-yl]-5-methoxybenzonitrile (atrop 2)], for which the IC50 in assay [1] (setting [3]) came out at 19000 nM.
The same measure, in the same setting: the figure for `Cc1cccc(Oc2cc(-n3c(=O)cc(C(F)(F)F)[nH]c3=O)c(F)cc2C#N)c1C` [Example 67, 2-(2,3-Dimethylphenoxy)-4-[2,6-dioxo-4-(trifluoromethyl)-3,6-dihydropyrimidin-1(2H)-yl]-5-fluorobenzonitrile] is 5100 nM; for `COc1cc(C#N)c(Oc2ccccc2C)cc1-n1c(=O)cc(C(F)F)[nH]c1=O` (racemic) [Example 22, 4-[4-(Difluoromethyl)-2,6-dioxo-3,6-dihydropyrimidin-1(2H)-yl]-5-methoxy-2-(2-methylphenoxy)benzonitrile (rac)] it is 150 nM.
